# Patent US20040259835A1, “Stabilized brivudine topical formulations” (priority 2001, published 2004)
# System: not listed separately
# Test: Photostabilization of brivudine by admixed substances (formulation not specified)
# Type: physicochemical
# Conditions: not given
# Source text: DE 3136282 proposes to protect light-unstable drugs using substances with a similar absorption profile. The protective effect is supposed to depend on the similarity between the absorption spectra of the stabilizer and of the drug, that is, the larger is the overlapping between the two absorption spectra, the better is the photo-stabilization. According to DE3136282, the ICH (International Conference on Harmonisation) guideline CPMP/ICH/279/95 was followed to determine brivudine degradation. Several substances, including pharmaceutical excipients, colorants or photostable drugs were tested in admixture with brivudine.
Compound,photostabilization of brivudine (in words),degradation of brivudine (in words)
"COc1cc(O)c(C(=O)c2cc(S(=O)(=O)[O-])c(OC)cc2O)cc1S(=O)(=O)[O-].[Na+].[Na+] [2,2′-dihydroxy-4,4′-dimethoxybenzophenone-5,5′-disodium sulfonate]",effectively stabilize,–
COc1ccc(C(=O)c2ccccc2O)c(O)c1 [Dioxybenzone],effectively stabilize,–
"O=S(=O)([O-])c1ccc(N=Nc2ccc(O)cc2O)cc1.[Na+] [Tropaeolin 0, 2,4-dihydroxyazobenzol-4′-sulfonic acid sodium salt]",best recovery rates,nearly no degradation of brivudine was detectable
COc1ccc(C(=O)CC(=O)c2ccc(C(C)(C)C)cc2)cc1 [avobenzone],"stabilize brivudine, although to a lesser extent",–
"CC1=C(/C=C/C(C)=C/C=C/C(C)=C/C=C/C=C(C)/C=C/C=C(C)/C=C/C2=C(C)CCCC2(C)C)C(C)(C)CCC1 [beta carotene, beta-carotene]",remarkable photostabilization,–
Cc1ccc(/C=C2/C(=O)C3(C)CCC2C3(C)C)cc1 (centres unmarked) [methyl-benzylidene-camphor],"stabilize brivudine, although to a lesser extent",–
CCCCC(CC)COC(=O)C(C#N)=C(c1ccccc1)c1ccccc1 (centres unmarked) [octocrylene],"stabilize brivudine, although to a lesser extent",–
CCCCC(CC)COC(=O)C=Cc1ccc(OC)cc1 (centres unmarked) [octyl-methoxy-cinnamate],"stabilize brivudine, although to a lesser extent",–

# Second part, led by results:
photostabilization of brivudine (in words),Compound,degradation of brivudine (in words)
effectively stabilize,"O=C(c1ccc(O)cc1O)c1ccc(O)cc1O [2,2′,4,4′-tetrahydroxybenzophenon, 2,2′,4,4′-tetrahydroxy-benzophenone]",–
effectively stabilize,"O=C(c1ccccc1)c1ccc(O)cc1O [2,4-dihydroxy benzophenone]",–
effectively stabilize,COc1ccc(C(=O)c2ccccc2)c(O)c1 [Oxybenzone],–
No effects,CCCCC(CC)COC(=O)c1ccc(N(C)C)cc1 (centres unmarked) [Padimate O],–
effectively stabilize,COc1cc(O)c(C(=O)c2ccccc2)cc1S(=O)(=O)O [Sulisobenzone],–
No effects,"CCCCC(CC)COC(=O)c1ccc(Nc2nc(Nc3ccc(C(=O)OCC(CC)CCCC)cc3)nc(Nc3ccc(C(=O)OCC(CC)CCCC)cc3)n2)cc1 (centres unmarked) [Uvinul® T150, 2,4,6-trianilino-p-(carbo-2′-ethyl-hexyl-1′-oxi)-1,3,5-triazin]",–
did not show any effect,O=C(O)CCCCC1CCSS1 (stereo not drawn) [alpha-liponic acid],–
did not show any effect,N[C@@H](CS)C(=O)O [cystein],–
No effects,CC1CC(OC(=O)c2ccccc2O)CC(C)(C)C1 (centres unmarked) [homosalate],–

# Same assay, conditions: substance in admixture with brivudine, UV irradiation
row,Compound,photostabilization of brivudine (in words)
1,4-Bis(polyethoxy)paraamino-benzoicacid-polyethoxy-ethylester [Uvinul ® P25],No effects
2,COc1cc(C=O)ccc1O [Vanillin],did not satisfactorily stabilize brivudine
3,"Type I: 2-(1,3-Dioxo-2-indanyl)-chinolin-disulfonic acid, Disodium salt Type II: 2-(1,3-Dioxo-2-indanyl)-methylchinolin-disulfonic acid, Disodium salt [Quinoline Yellow]",did not satisfactorily stabilize brivudine

# Same assay, conditions: versus controls
row,Compound,protection of brivudine from decomposition over the controls
1,"O=S(=O)([O-])c1ccc2c(N=Nc3ccc(S(=O)(=O)[O-])c4ccccc34)c(O)c(S(=O)(=O)[O-])cc2c1.[Na+].[Na+].[Na+] [Food red 9, 3-Hydroxy-4-(4-sulfonato-1-naphtylazo)-naphthalin-2,7-disulfonic acid, Trisodium salt]",more than 30%

# Same assay, conditions: with respect to brivudine alone
row,Compound,fold increase of brivudine photostabilization / recovery
1,"7-Hydroxy-8-(4-sulfonato-1-naphthylazo)-naphthalin-1,3-disulfonic acid, trisodium salt [Cochineal Red A]",more then threefold

# System: herpes simplex virus type 1 (HSV-1)
# Test: not given
# Conditions: state of the art; cited from earlier work
row,Compound,effectiveness against HSV-1 (in words)
1,"O=c1[nH]c(=O)n([C@H]2C[C@H](O)[C@@H](CO)O2)cc1/C=C/Br [brivudine, (E)-5-(2-bromovinyl)-2′-deoxyuridine]",very effective

# System: varicella-zoster virus (VZV)
# Test: not given
# Conditions: state of the art; cited from earlier work
row,Compound,effectiveness against VZV (in words)
1,"O=c1[nH]c(=O)n([C@H]2C[C@H](O)[C@@H](CO)O2)cc1/C=C/Br [brivudine, (E)-5-(2-bromovinyl)-2′-deoxyuridine]",very effective

# System: not given
# Test: not given
# Conditions: UV light; isomerization to Z-BVDU and other decomposition products; state of the art; cited from earlier work
row,Compound,light stability of brivudine (in words)
1,"O=c1[nH]c(=O)n([C@H]2C[C@H](O)[C@@H](CO)O2)cc1/C=C/Br [brivudine, (E)-5-(2-bromovinyl)-2′-deoxyuridine]",light-instability
